According to patent publication US20260364068A1, “ANTIVIRAL USE OF HETEROARYL DERIVATIVE COMPOUND” (UIF (University Industry Foundation), Yonsei University, priority 2022, published 2026):
Like-named read-outs stand apart in the source and are kept apart here.

What was measured:
Assay type in all cases: cell-based
[1] = Cell viability measurement (MTS), Calu-3 cells; settings: human
Outline: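 Calu-3 cells at about 20% confluency treated with compounds at 1, 3 and 10 μM (0.5% v/v DMSO) for 48 h at 37 °C. MTS added for 1 h; A490 minus A690 background, normalized to DMSO control as 100%; mean of 2–6 repeats, binned into viability ranges.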

[2] = biological target: T1, human ANO6 (variant 5) (Homo sapiens, UniProt Q4KMQ2); assay: Lact C2 assay (phosphatidylserine externalization scramblase function); settings: FRT cells expressing human ANO6, ionomycin 10 μM, read-out: % Inhibition (phosphatidylserine externalization inhibitory activity); for inhibition at 0.05 µM: 50 nM
T1 construct: expressed in transfected cells; host or cells: Fisher rat thyroid (FRT) cells
T1 sequence (Q4KMQ2 1-931 isoform Q4KMQ2-2): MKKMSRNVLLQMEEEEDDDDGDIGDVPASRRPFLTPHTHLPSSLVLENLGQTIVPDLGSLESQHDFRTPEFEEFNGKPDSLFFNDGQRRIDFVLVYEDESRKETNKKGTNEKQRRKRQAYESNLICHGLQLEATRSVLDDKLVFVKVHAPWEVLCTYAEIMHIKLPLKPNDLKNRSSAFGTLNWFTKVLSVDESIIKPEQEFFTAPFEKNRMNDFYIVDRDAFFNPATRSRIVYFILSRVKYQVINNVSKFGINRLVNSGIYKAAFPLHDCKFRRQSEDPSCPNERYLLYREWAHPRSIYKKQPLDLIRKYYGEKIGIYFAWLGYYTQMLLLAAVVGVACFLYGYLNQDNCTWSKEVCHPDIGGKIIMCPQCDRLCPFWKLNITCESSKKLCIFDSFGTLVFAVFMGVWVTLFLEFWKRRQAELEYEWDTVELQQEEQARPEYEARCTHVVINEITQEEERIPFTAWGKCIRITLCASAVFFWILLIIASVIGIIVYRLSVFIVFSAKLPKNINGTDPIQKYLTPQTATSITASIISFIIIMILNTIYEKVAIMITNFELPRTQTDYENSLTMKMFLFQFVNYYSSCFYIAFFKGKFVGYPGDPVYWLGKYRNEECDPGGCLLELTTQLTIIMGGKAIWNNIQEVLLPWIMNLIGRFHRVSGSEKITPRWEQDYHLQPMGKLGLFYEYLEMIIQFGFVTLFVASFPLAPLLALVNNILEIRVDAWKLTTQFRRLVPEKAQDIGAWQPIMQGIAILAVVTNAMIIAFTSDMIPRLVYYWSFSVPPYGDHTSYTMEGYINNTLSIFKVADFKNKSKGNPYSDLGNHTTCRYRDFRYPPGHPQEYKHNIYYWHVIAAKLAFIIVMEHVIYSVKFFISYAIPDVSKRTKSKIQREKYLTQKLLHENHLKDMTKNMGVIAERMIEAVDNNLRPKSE
Protocol: Experimental Example 2: Lact C2 Assay (Measuring Phosphatidylserine Externalization Scramblase Function)
Ionomycin (Alomonelab, cat. #I-700), DAPI (Sigma-Aldrich, cat. #D8417), paraformaldehyde (Biosesang, cat. #P2031), Lionheart FX automated fluorescence microscope (BioTek), Gen5™ software program (BioTek), and Image J analysis software program.
Fisher rat thyroid (FRT) cells expressing human ANO6 (variant 5; GenBank accession no. NP_001191732.1) were cultured at 37 °C under 5% CO2 conditions in DMEM/Ham's F-12 (1:1) medium supplemented with 10% Fetal Bovine Serum, 2 mM […], 100 units/mL penicillin, and 100 μg/mL streptomycin.
Fischer Rat Thyroid (FRT) cells (2×10^4 cells/well) expressing human ANO6 (variant 5) were cultured in a 96-well microplate for 24 hours. After the incubation, the cells were treated with compounds dissolved in DMSO to 1% v/v in each well at each concentration (50 nM, 100 nM, and 1 μM) and reacted for 10 minutes. Thereafter, each well was treated with ionomycin to a final concentration of 10 μM, allowed to react for 10 minutes, and then washed with 200 μL PBS. After washing, each well was treated with 50 μL of Lactadherin-C2 (Lact-C2)-GFP mixed in DMEM medium to a final concentration of 500 nM to stain phosphatidylserine, and cultured at 37 °C for 10 minutes. After completion of the reaction, the cells were washed with 200 μL PBS, and fixed with 4% paraformaldehyde for 5 minutes at room temperature. For morphological analysis, DAPI solution was added, and the cells were incubated for 15 minutes, followed by washing with PBS. The fluorescence intensity of Lact-C2-GFP bound to phosphatidylserine on the cell surface was measured using an automated fluorescence microscope. For quantitative analysis of the fluorescence intensity of Lact-C2-GFP, BioTek Gen5™ software and Image J analysis software programs were used.
Phosphatidylserine externalization inhibitory activity (%) by the compound was calculated through the following analysis method. Specifically, the background fluorescence value was subtracted from the measured Lact-C2-GFP fluorescence value, and the fluorescence value of the ionomycin non-treatment group and the ionomycin-treatment group in the same row where each test group was located in a 96-well microplate were calculated. In order to calculate the inhibitory activity (%) by the compound, the relative inhibitory activity was calculated by setting the compound and ionomycin non-treatment group to 100% inhibitory activity and the ionomycin alone treatment group to 0% inhibitory activity. To derive the results, the test was repeated three times, and the average values of the results were classified according to the range below and shown in Table 4 below (A: >60% inhibition, B: 30 to 60% inhibition, N/A: no test).

[3] = test system: Severe Acute Respiratory Syndrome Coronavirus Type 2; assay: microbe, parasite or virus in culture; settings: Vero, 10 uM, virus strain NCCP-43388, 48 hours, read-out: Virus replication inhibition efficacy
[4] = test system: Severe Acute Respiratory Syndrome Coronavirus Type 2; assay: microbe, parasite or virus in culture; settings: Calu-3, 10 uM, virus strain NCCP-43388, 48 hours, read-out: Virus replication inhibition efficacy

Structure (SMILES) | viability at 48 h, 10 µM [1] [%] | inhibition at 0.05 µM [2] [%] | inhibition at 1 µM [2] [%] | viability at 48 h, 1 µM ([1]; 1 μM) [%] | viability at 48 h, 3 µM ([1]; 3 μM) [%] | inhibition at 10 µM [3] [%] | inhibition at 10 µM [4] [%]
Clc1ccc2nc(-c3cccc(Nc4cnc(-c5ccccn5)cn4)c3)[nH]c2c1 [Example 324, N-(3-(6-chloro-1H-benzo[d]imidazol-2-yl)phenyl)-5-(pyridin-2-yl)pyrazin-2-amine] | > 80 | 30 to 60 | > 60 | – | – | – | –
Fc1ccc2nc(-c3cccc(Nc4ncc(-c5cccnn5)cn4)c3)[nH]c2c1 [Example 51, N-(3-(6-fluoro-1H-benzo[d]imidazol-2-yl)phenyl)-5-(pyridazin-3-yl)pyrimidin-2-amine] | > 80 | 30 to 60 | – | > 80 | > 80 | – | –
FC(F)Oc1cc2[nH]c(-c3cccc(Nc4cnc(-c5ccccn5)cn4)c3)nc2cn1 [Example 336, N-(3-(6-(difluoromethoxy)-1H-imidazo[4,5-c]pyridin-2-yl)phenyl)-5-(pyridin-2-yl)pyrazin-2-amine] | > 80 | > 60 | > 60 | – | – | – | –
Fc1ccc2nc(-c3cccc(Nc4cnc(-c5ccccn5)cn4)c3)[nH]c2c1 [Example 323, N-(3-(6-fluoro-1H-benzo[d]imidazol-2-yl)phenyl)-5-(pyridin-2-yl)pyrazin-2-amine] | > 80 | 30 to 60 | > 60 | – | – | – | –
Fc1cc2nc(-c3cccc(Nc4ncc(-c5cscn5)cn4)c3)[nH]c2cc1F [Example 332, N-(3-(5,6-difluoro-1H-benzo[d]imidazol-2-yl)phenyl)-5-(thiazol-4-yl)pyrimidin-2-amine] | > 80 | > 60 | > 60 | – | – | – | –
FC(F)Oc1cc2[nH]c(-c3cccc(Nc4ncc(-c5ccccn5)cn4)c3)nc2cn1 [Example 329, N-(3-(6-(difluoromethoxy)-1H-imidazo[4,5-c]pyridin-2-yl)phenyl)-5-(pyridin-2-yl)pyrimidin-2-amine] | 50 to 80 | > 60 | > 60 | – | – | – | –
CN(Cc1ccccc1)c1ccc2nc(-c3cccc(Nc4ccc(-c5cccnn5)cc4)c3)[nH]c2c1 [Example 280, N-benzyl-N-methyl-2-(3-((4-(pyridazin-3-yl)phenyl)amino)phenyl)-1H-benzo[d]imidazol-6-amine] | – | 30 to 60 | > 60 | – | – | > 60 | > 60
Fc1cc2[nH]c(-c3cccc(Nc4cnc(-c5ccccn5)cn4)c3)nc2cn1 [Example 330, N-(3-(6-fluoro-1H-imidazo[4,5-c]pyridin-2-yl)phenyl)-5-(pyridin-2-yl)pyrazin-2-amine] | > 80 | – | > 60 | – | – | – | –
Fc1cc2nc(-c3cccc(Nc4ncc(-c5ccccn5)cn4)c3)[nH]c2cc1F [Example 313, N-(3-(5,6-difluoro-1H-benzo[d]imidazol-2-yl)phenyl)-5-(pyridin-2-yl)pyrimidin-2-amine] | > 80 | > 60 | > 60 | – | – | – | –
FC(F)Oc1cc2[nH]c(-c3cccc(Nc4ccc(-c5cccnn5)cc4)c3)nc2cn1 [Example 331, 3-(6-(difluoromethoxy)-1H-imidazo[4,5-c]pyridin-2-yl)-N-(4-(pyridazin-3-yl)phenyl)aniline] | > 80 | 30 to 60 | > 60 | – | – | – | –
